Assay results: patent US20060223996A1, “IL-12 modulatory compounds” (Synta Pharmaceuticals Corp., priority 2004, published 2006)
pIC50: −log10 of the molar value.

Tested on: IL-12
Assay: Human in vitro assay: inhibition of IL-12 production in IFNγ/LPS- or IFNγ/SAC-stimulated human PBMC or THP-1 cells (ELISA)
Type: cell-based
Settings: read-out: IC50 Range (representative in vitro IC50 data)
In short: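 PBMC (5×10^5 cells/well) primed with IFNγ 30 U/mL for 22 h then LPS 1 μg/mL, or IFNγ 100 U/mL then SAC 0.01%; THP-1 primed with IFNγ 100 U/mL for 22 h then SAC 0.025%, with compound in 0.25% DMSO. Supernatant IL-12 p70/p40 measured by sandwich ELISA after 18 h; IC50 derived; viability by MTS.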

Row | pIC50 | Structure (SMILES)
1 | ≤ 6.00 | CCN(CC)c1cccc(NC(=O)c2cc(OCCN3CCOCC3)nc(N3CCOCC3)n2)c1 [Compound 300, 2-Morpholin-4-yl-6-(2-morpholin-4-yl-ethoxy)-pyrimidine-4-carboxylic acid (3-diethylamino-phenyl)-amide]
2 | > 6.00 | COCCOc1cc(C(=O)Nc2ccc3[nH]c(C)c(C)c3c2)nc(N2CCOCC2)n1 [Compound 301, 6-(2-Methoxy-ethoxy)-2-morpholin-4-yl-pyrimidine-4-carboxylic acid (2,3-dimethyl-1H-indol-5-yl)-amide]
3 | > 6.00 | COCCN(C)c1cc(C(=O)Nc2cccc(N(C)C)c2)nc(N2CCOCC2)n1 [Compound 302, 6-[(2-Methoxy-ethyl)-methyl-amino]-2-morpholin-4-yl-pyrimidine-4-carboxylic acid (3-dimethylamino-phenyl)-amide]
4 | > 6.00 | CN(C)c1cccc(NC(=O)c2cc(N(C)CCO)nc(N3CCOCC3)n2)c1 [Compound 303, 6-[(2-Hydroxy-ethyl)-methyl-amino]-2-morpholin-4-yl-pyrimidine-4-carboxylic acid (3-dimethylamino-phenyl)-amide]
5 | > 6.00 | CN(CCO)c1cc(C(=O)Nc2cccc(-n3cccc3)c2)nc(N2CCOCC2)n1 [Compound 304, 6-[(2-Hydroxy-ethyl)-methyl-amino]-2-morpholin-4-yl-pyrimidine-4-carboxylic acid (3-pyrrol-1-yl-phenyl)-amide]
6 | ≤ 6.00 | O=C(Nc1cccc(-n2ccnc2)c1)c1cc(OCCN2CCOCC2)nc(N2CCOCC2)n1 [Compound 305, 2-Morpholin-4-yl-6-(2-morpholin-4-yl-ethoxy)-pyrimidine-4-carboxylic acid (3-imidazol-1-yl-phenyl)-amide]
7 | > 6.00 | Cc1[nH]c2ccc(NC(=O)c3cc(OCCO)nc(N4CCOCC4)n3)cc2c1C [Compound 307, 6-(2-Hydroxy-ethoxy)-2-morpholin-4-yl-pyrimidine-4-carboxylic acid (2,3-dimethyl-1H-indol-5-yl)-amide]
8 | ≤ 6.00 | CC(C)N(C)c1cccc(NC(=O)c2cc(OCCN3CCOCC3)nc(N3CCOCC3)n2)c1 [Compound 308, 2-Morpholin-4-yl-6-(2-morpholin-4-yl-ethoxy)-pyrimidine-4-carboxylic acid [3-(isopropyl-methyl-amino)-phenyl]-amide]
9 | > 6.00 | CN(C)c1cccc(NC(=O)c2cc(OCCO)nc(N3CCOCC3)n2)c1 [Compound 309, 6-(2-Hydroxy-ethoxy)-2-morpholin-4-yl-pyrimidine-4-carboxylic acid (3-dimethylamino-phenyl)-amide]
10 | > 6.00 | CN(CCO)c1cc(C(=O)Nc2cccc(N3CCCC3)c2)nc(N2CCOCC2)n1 [Compound 310, 6-[(2-Hydroxy-ethyl)-methyl-amino]-2-morpholin-4-yl-pyrimidine-4-carboxylic acid (3-pyrrolidin-1-yl-phenyl)-amide]
11 | > 6.00 | COCCN(C)c1cc(C(=O)Nc2cccc(-n3cccn3)c2)nc(N2CCOCC2)n1 [Compound 311, 6-[(2-Methoxy-ethyl)-methyl-amino]-2-morpholin-4-yl-pyrimidine-4-carboxylic acid (3-pyrazol-1-yl-phenyl)-amide]
12 | > 6.00 | CCN(C)c1cccc(NC(=O)c2cc(OCCN3CCOCC3)nc(N3CCOCC3)n2)c1 [Compound 312, 2-Morpholin-4-yl-6-(2-morpholin-4-yl-ethoxy)-pyrimidine-4-carboxylic acid [3-(ethyl-methyl-amino)-phenyl]-amide]
13 | > 6.00 | O=C(Nc1cccc(-n2cccn2)c1)c1cc(OCCN2CCOCC2)nc(N2CCOCC2)n1 [Compound 313, 2-Morpholin-4-yl-6-(2-morpholin-4-yl-ethoxy)-pyrimidine-4-carboxylic acid (3-pyrazol-1-yl-phenyl)-amide]
14 | > 6.00 | Cc1[nH]c2ccc(NC(=O)c3cc(OCC(C)(C)O)nc(N4CCOCC4)n3)cc2c1C [Compound 314, 6-(2-Hydroxy-2-methyl-propoxy)-2-morpholin-4-yl-pyrimidine-4-carboxylic acid (2,3-dimethyl-1H-indol-5-yl)-amide]
15 | > 6.00 | CN(CCO)c1cc(C(=O)Nc2cccc(-n3cccn3)c2)nc(N2CCOCC2)n1 [Compound 315, 6-[(2-Hydroxy-ethyl)-methyl-amino]-2-morpholin-4-yl-pyrimidine-4-carboxylic acid (3-pyrazol-1-yl-phenyl)-amide]
16 | > 6.00 | Cc1[nH]c2ccc(NC(=O)c3cc(OCC(=O)OC(C)(C)C)nc(N4CCOCC4)n3)cc2c1C [Compound 316, [6-(2,3-Dimethyl-1H-indol-5-ylcarbamoyl)-2-morpholin-4-yl-pyrimidin-4-yloxy]-acetic acid tert-butyl ester]
17 | > 6.00 | CN1CCCc2ccc(NC(=O)c3cc(OCCN4CCOCC4)nc(N4CCOCC4)n3)cc21 [Compound 317, 2-Morpholin-4-yl-6-(2-morpholin-4-yl-ethoxy)-pyrimidine-4-carboxylic acid (1-methyl-1,2,3,4-tetrahydro-quinolin-7-yl)-amide]
18 | ≤ 6.00 | CN1CCCc2cc(NC(=O)c3cc(OCCN4CCOCC4)nc(N4CCOCC4)n3)ccc21 [Compound 318, 2-Morpholin-4-yl-6-(2-morpholin-4-yl-ethoxy)-pyrimidine-4-carboxylic acid (1-methyl-1,2,3,4-tetrahydro-quinolin-6-yl)-amide]
19 | > 6.00 | Cc1cc(C(=O)Nc2ccc3c(c2)c(C)c(C)n3O)nc(N2CCOCC2)n1 [Compound 319, 6-Methyl-2-morpholin-4-yl-pyrimidine-4-carboxylic acid (1-hydroxy-2,3-dimethyl-1H-indol-5-yl)-amide]
20 | > 6.00 | Cc1c(C)n(O)c2ccc(NC(=O)c3cc(OCCN4CCOCC4)nc(N4CCOCC4)n3)cc12 [Compound 320, 2-Morpholin-4-yl-6-(2-morpholin-4-yl-ethoxy)-pyrimidine-4-carboxylic acid (1-hydroxy-2,3-dimethyl-1H-indol-5-yl)-amide]
21 | ≤ 6.00 | CC1CCc2ccc(NC(=O)c3cc(OCCN4CCOCC4)nc(N4CCOCC4)n3)cc2N1C (stereo not shown) [Compound 321, 2-Morpholin-4-yl-6-(2-morpholin-4-yl-ethoxy)-pyrimidine-4-carboxylic acid (1,2-dimethyl-1,2,3,4-tetrahydro-quinolin-7-yl)-amide]
22 | > 6.00 | O=C(Nc1ccc2[nH]c3c(c2c1)CCCC3)c1cc(OCCc2cccc[n+]2[O-])nc(N2CCOCC2)n1 [Compound 322, 2-Morpholin-4-yl-6-[2-(1-oxy-pyridin-2-yl)-ethoxy]-pyrimidine-4-carboxylic acid (6,7,8,9-tetrahydro-5H-carbazol-3-yl)-amide]
23 | > 6.00 | Cc1[nH]c2ccc(NC(=O)Nc3cc(OCCN4CCOCC4)nc(N4CCOCC4)n3)cc2c1C [Compound 323, 1-(2,3-Dimethyl-1H-indol-5-yl)-3-[2-morpholin-4-yl-6-(2-morpholin-4-yl-ethoxy)-pyrimidin-4-yl]-urea]
24 | > 6.00 | Nc1cccc(NC(=O)Nc2cc(OCCN3CCOCC3)nc(N3CCOCC3)n2)c1 [Compound 324, 1-(3-Amino-phenyl)-3-[2-morpholin-4-yl-6-(2-morpholin-4-yl-ethoxy)-pyrimidin-4-yl]-urea]
25 | > 6.00 | O=C(Nc1ccc2[nH]c3c(c2c1)CCCC3)Nc1cc(OCCN2CCOCC2)nc(N2CCOCC2)n1 [Compound 325, 1-[2-Morpholin-4-yl-6-(2-morpholin-4-yl-ethoxy)-pyrimidin-4-yl]-3-(6,7,8,9-tetrahydro-5H-carbazol-3-yl)-urea]
